According to PubChem BioAssay (NCI):
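48-hour exposure; five concentrations; linearly interpolated endpoints. The concentration for full growth arrest is given as TGI.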

Experiments:
Assay in all cases: NCI tumour cell line growth inhibition, 48 h
BT-549 breast = test system: BT-549 breast
COLO 205 colon = test system: COLO 205 colon
DU-145 prostate = test system: DU-145 prostate
EKVX NSCLC = test system: EKVX NSCLC
HCT-116 colon = test system: HCT-116 colon
HT29 colon = test system: HT29 colon
K-562 leukemia = test system: K-562 leukemia
KM12 colon = test system: KM12 colon
M14 melanoma = test system: M14 melanoma
MCF7 breast = test system: MCF7 breast
OVCAR-4 ovarian = test system: OVCAR-4 ovarian
RXF 393 renal = test system: RXF 393 renal
SF-295 CNS = test system: SF-295 CNS
SK-MEL-5 melanoma = test system: SK-MEL-5 melanoma
UACC-62 melanoma = test system: UACC-62 melanoma
UO-31 renal = test system: UO-31 renal
SK-MEL-2 melanoma = test system: SK-MEL-2 melanoma
TK-10 renal = test system: TK-10 renal

Structure (SMILES) | TGI (BT-549 breast) | TGI (COLO 205 colon) | TGI (DU-145 prostate) | TGI (EKVX NSCLC) | TGI (HCT-116 colon) | TGI (HT29 colon) | TGI (K-562 leukemia) | TGI (KM12 colon) | TGI (M14 melanoma) | TGI (MCF7 breast) | TGI (OVCAR-4 ovarian) | TGI (RXF 393 renal) | TGI (SF-295 CNS) | TGI (SK-MEL-5 melanoma) | TGI (UACC-62 melanoma) | TGI (UO-31 renal) | TGI (SK-MEL-2 melanoma) | TGI (TK-10 renal)
CCOCc1c(C)cc(C)c(C2C(C(=O)c3ccccc3)N3c4ccccc4C=CC3C2(C#N)C(=O)OCC)c1C (configuration not stated) | 75.8 µM | 53.7 µM | > 100 µM | 67.3 µM | > 100 µM | > 100 µM | > 100 µM | 54.9 µM | > 100 µM | > 100 µM | > 100 µM | > 100 µM | > 100 µM | 33.2 µM | > 100 µM | > 100 µM |  | 
O=P1(O)c2ccccc2CCc2ccccc21 | > 100 µM | > 100 µM | > 100 µM | > 100 µM | > 100 µM |  | > 100 µM | > 100 µM | > 100 µM | > 100 µM |  | > 100 µM | > 100 µM | > 100 µM | > 100 µM | > 100 µM | > 100 µM | > 100 µM
COc1cc(/C=N\N(C)C)cc(/C=N/N(C)C)c1O | 61.9 µM | 46.9 µM | > 100 µM |  | > 100 µM | 48 µM |  | > 100 µM | 83.9 µM | > 100 µM | > 100 µM | > 100 µM | 8.9 µM | > 100 µM | > 100 µM | 79.5 µM | 28.1 µM | > 100 µM
C=C1[C@H](OC(C)=O)[C@H]2[C@@H](OC(C)=O)[C@@H](C)C[C@]2(C)C(=O)[C@H](C)/C=C/C(C)(C)C(=O)[C@H](OCC(C)C)[C@H]1OC(C)=O | > 25 µM | > 25 µM | > 25 µM | > 25 µM | > 25 µM |  |  | > 25 µM | > 25 µM | > 25 µM | > 25 µM | > 25 µM | > 25 µM | > 25 µM | > 25 µM | > 25 µM | > 25 µM | > 25 µM
CC(=N)OC1CC2CCC1(C)C2(C)C (configuration not stated) | > 100 µM | > 100 µM | > 100 µM | > 100 µM | > 100 µM | > 100 µM | > 100 µM | > 100 µM | > 100 µM | > 100 µM | > 100 µM | > 100 µM | > 100 µM | > 100 µM | > 100 µM | > 100 µM |  | > 100 µM
CCOC(=O)c1cc2c([nH]1)c(O)cc1c2ccn1Cc1ccccc1 | 32.2 µM | 39.8 µM | 34.3 µM | 26.7 µM | 23.8 µM | 30.2 µM | 25.3 µM | 24.8 µM | 47.5 µM | 44.4 µM | 35.4 µM | 21.9 µM | 31.6 µM | 24.5 µM | 28.8 µM | 29.3 µM | 36.6 µM | 
O=C1N=C(SC2OC(CO)C(O)C(O)C2O)S/C1=C\c1ccccc1 (configuration not stated) | > 100 µM |  | > 100 µM |  |  | > 100 µM | > 100 µM | > 100 µM | > 100 µM | > 100 µM |  | > 100 µM | > 100 µM | > 100 µM | > 100 µM | > 100 µM | > 100 µM | > 100 µM
